T1: P18 protein (human P18INK4C residues 1-168), recombinant (human, UniProt P42773 1-168)
T1 construct: Human P18 (P18INK4C, CDKN2C), residues 1-168, called full-length P18 protein in the results; The purification of this protein is not described; only that of His6-MCL1 is; also called CDKN2C; full-length P18 protein; source: E. coli BL21(DE3), recombinant
T1 sequence (looked up): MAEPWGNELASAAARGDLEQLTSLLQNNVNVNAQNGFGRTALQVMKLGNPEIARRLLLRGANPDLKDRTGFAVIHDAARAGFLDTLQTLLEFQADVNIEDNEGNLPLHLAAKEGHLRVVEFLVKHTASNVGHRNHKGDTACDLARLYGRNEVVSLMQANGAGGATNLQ

B1: P18-ANK4-5 (P18 residues 106-168) (domain or fragment, human, UniProt P42773 106-168, looked up)
chain: PLHLAAKEGHLRVVEFLVKHTASNVGHRNHKGDTACDLARLYGRNEVVSLMQANGAGGATNLQ
notes: Human P18 (P18INK4C), residues 106-168: ankyrin repeats 4 and 5, with the rBH3 motif; also called A4-5; source: E. coli BL21(DE3), recombinant
B2: His6-MCL1 (human MCL1 residues 163-326) (domain or fragment, UniProt Q07820 163-326, looked up)
chain: TPPPAEEEEDELYRQSLEIISRYLREQATGAKDTKPMGRSGATSRKALETLRRVGDGVQRNHETAFQGMLRKLDIKNEDDVKSLSRVMIHVFSDGVTNWGRIVTLISFGAFVAKHLKTINQESCIEPLAESITDVLVRTKRDWLVKQRGWDGFVEFFHVEDLEG
notes: Named His6-MCL1 in the FPA; called rMCL1 in the pull-downs; also called His-MCL1; recombinant MCL1; source: E. coli BL21(DE3), purified (nickel column, gel filtration); not shown: His6, N-terminal, kept
B3: Chimeric protein of P16-ANK1-3 and P18-ANK4-5 (P16 residues 1-113 and P18 residues 106-168) (other, human, UniProt P42771 1-113, looked up)
chain: MEPAAGSSMEPSADWLATAAARGRVEEVRALLEAGALPNAPNSYGRRPIQVMMMGSARVAELLLLHGAEPNCADPATLTRPVHDAAREGFLDTLVVLHRAGARLDVRDAWGRLPLHLAAKEGHLRVVEFLVKHTASNVGHRNHKGDTACDLARLYGRNEVVSLMQANGAGGATNLQ
notes: Human P18 (P18INK4C), residues 106-168 (ankyrin repeats 4-5 with the rBH3 motif); also called AC; chimera; source: E. coli BL21(DE3), recombinant

Experiments:
[1] = system: P18 protein in PC3 and WAC2 cells; assay: Western blot of P18 protein in treated cells; assay type: cell-based, human; conditions: for P18 protein level: Western blot, PC3 or WAC2 cells, 4 h, 10 µM LeuP, 30 µM BTZ or 10 µM LeuP + 30 µM BTZ (Fig. 5), BTZ 10, 20 or 30 µM in PC-3 (Fig. S4), N = 3
Description: (§1) Whole-cell lysates were prepared by lysing cells on ice with 1× RIPA buffer (Boston BioProducts): 50 mM Tris-HCl pH 7.4, 150 mM NaCl, 1% NP40, 0.5% sodium deoxycholate and water (rest) supplemented with protease inhibitors (1 mM AEBSF, 0.8 μM aprotinin, 0.05 mM bestatin, 0.015 mM E-64, 0.02 mM leupeptin, 0.01 mM pepstatin A). Protein lysates were resolved by sodium dodecyl sulfate–polyacrylamide gel electrophoresis and transferred to polyvinylidene fluoride membrane in a wet transfer system for 1 h at 100 V. Membranes were incubated with anti-MCL1 Abs (D2W9E and D35A5, Cell Signaling), anti-BAX Abs (D2E11, Cell Signaling), anti-P18 Abs, DCS-118 from Cell Signaling, anti-β-actin Abs, PA1–21167, from Pierce (Rockford, IL, USA), and anti-CDK6 Ab, (C-21): sc-177 from Santa Cruz at a dilution of 1:1000, at 4 °C overnight. HRP-conjugated secondary Abs were used for detection using ECL2 reagent (Pierce). Immunoblots were visualized on Bio-Rad ChemiDoc MP imaging system.
Fig. 5 MCL1 impact on P18 degradation. Western blot of DMSO control (0.3%), 10 µM leupeptin (LeuP), 10 µM LeuP + 30µM bortezomib (BTZ), or 30 µM BTZ treated (a) PC3 cells or (b) WAC2 cells for 4 h. Quantification of band intensity shown below blot. All data are presented as mean ± S.D., N = 3. The statistical significance was determined by unpaired Student t-test where […].
Figure S4. Bortezomib inversely impacts MCL1 and P18. Western blot of bortezomib treated PC-3 cells (10, 20, or 30 uM) for 4 hours. Quantification of band intensity shown below blot. All data are presented as mean ± S.D., N=3. The statistical significance was determined by unpaired Student t-test where *P<0.05; **P<0.01; ***P<0.001.

[2] = system: MCL1 protein in PC3 and WAC2 cells; assay: Western blot of MCL1 protein in treated cells; assay type: cell-based, human; conditions: PC3 or WAC2 cells, 4 h, 10 µM LeuP, 30 µM BTZ or 10 µM LeuP + 30 µM BTZ (Fig. 5), BTZ 10, 20 or 30 µM in PC-3 (Fig. S4), N = 3
Description: as §1
Fig. 5 MCL1 impact on P18 degradation. […] Quantification of band intensity shown below blot. […] The statistical significance was determined by unpaired Student t-test where […].
Figure S4. […] Quantification of band intensity shown below blot. […] The statistical significance was determined by unpaired Student t-test where *P<0.05; **P<0.01; ***P<0.001.

recombinant MCL1 (rMCL1) = assay: In vitro pulldown of recombinant MCL1 by recombinant P18/P16 constructs; assay type: binding, human; conditions: recombinant P18 (IP) with rMCL1 (IB) with and without MCL1 inhibitor, Fig. 2c
Description: Human MCL1 [Uniprot: Q07820] (residues 163–326), human P18 [Uniprot: P42773] (residues 1–168), A1–4 (P18 residues 1–140), A4–5 (P18 residues 106–168), P16 [Uniprot: P42771] (residues 1–156), and AC (P16 residues 1–113 and P18 residues 106–168) were sequence-optimized for bacterial expression and cloned into the restriction sites of NdeI and HindIII in a pET28a vector (EMD Millipore) to incorporate a N-terminal hexa-histidine (His6) tag and transformed into BL21(DE3) E. Coli (New England Bio Labs). Cultures were grown under kanamycin selection in Luria broth to a 600 nm optical density of 0.6 and expression was induced by addition of 1 mM isopropyl β-D-1-thiogalactopyranoside (Thermo Fisher). Cultures were harvested 3–4 h after induction by centrifugation at 4700 × g. Resulting bacterial pellets were stored at −80 °C. His6-MCL1 bacterial pellets were re-suspended (10 mL/wet g of pellet) in Buffer A (1 × PBS, pH 6.8) with the addition of 1× lysozyme (0.25 mg/mL) (Thermo Fisher) and 1 protease inhibitor tablet (Pierce #88266), sonicated, and cleared at 14,000 × g. Resulting lysate was purified on NGC FPLC (Bio-Rad Laboratories) using a 1 mL HiTrap HP nickel column (GE Healthcare) equilibrated with Buffer A. Protein was eluted with a 2 mM–1000 mM imidazole gradient. His-MCL1 containing fractions, as identified by denaturing polyacrylamide gel electrophoresis, were further purified by gel filtration in Buffer B (1× PBS, pH 6.8) on a HiPrep 16/60 Sephacryl S-100 column (GE Healthcare). Resulting protein identity was confirmed by matrix-assisted laser desorption/ionization (MALDI) mass spectrometry.
Fig. 2 MCL1 binds specifically to P18 through C-terminal rBH3. a Western blot of endogenous coIP of MCL1 (IP) with P18 (IB), BAX (IB), and P18 (IB) in WAC2. b Western blot of in vitro pulldown of recombinant proteins (IP), ANK1–4, ANK4–5, P18, p16, and chimera, with recombinant MCL1 (rMCL1) (IB). Cartoon of the p16, P18, and chimera proteins are shown below the blot. rBH3-containing helix is highlighted in yellow (Residues: 150–161). c Western blot of in vitro pulldown of recombinant P18 (IP) with rMCL1 (IB) with and without MCL1 inhibitor S63845.
P18 is a member of the INK4 protein family [P16INK4A (P16, CDKN2A), P15INK4B (P15, CDKN2B), P18INK4C (P18, CDKN2C), and P19INK4D (P19, CDKN2D)] that regulate G1/S cell cycle progression with all INK4 proteins retaining homologous CDK4/6 inhibitory function. INK4 family proteins have homologous structures containing either four or five ankyrin (ANK) repeats, a helix-turn-helix structural unit known to mediate protein-protein interactions[15],[17]. […] The rBH3 in P18 resides in its fifth ankyrin repeat (residues 141–168). […] Based on prior stability studies of ankyrin repeats within INK4 family proteins[18],[19], we designed two truncations of P18 (Supplementary Table S1). The first, P18-ANK1–4 (ANK1–4), removes the rBH3-containing fifth ankyrin repeat. The second, P18-ANK4–5 (ANK4–5), retains the rBH3 domain as well as ankyrin repeat 4 to facilitate folding.

[3] = system: WAC2 cells (MCL1 overexpressed); assay: PI DNA content flow cytometry, cell cycle population of MCL1-overexpressing WAC2 cells treated with BH3 mimetics; assay type: cell-based, human; conditions: PI staining, N = 3, Fig. 6a; for effect on MCL1 overexpression induced decrease in G1 population: WAC2, MCL1 plasmid, then BH3 mimetic for 18 h, final DMSO 0.5%
[4] = target: B2; assay: pull-down; in vitro pulldown of recombinant P18, P16, truncated and chimeric proteins (IP) with recombinant MCL1 (IB); conditions: both partners purified
[5] = target: T1, P18 protein (human P18INK4C residues …); assay: as above; conditions: both partners purified

`CC(C)C[C@H](NC(=O)[C@H](Cc1ccccc1)NC(=O)c1cnccn1)B(O)O` [bortezomib] was tested, and the P18 protein level [1] was “decrease in P18 protein”, the “effect of bortezomib on MCL1-induced loss of P18 protein” value ([1]; proteasome inhibitor bortezomib, Fig. 5 and Fig. S4) was “does not rescue this effect” and the MCL1 protein level [2] was “increase in MCL1 protein”.

`CC(=O)N[C@@H](CC(C)C)C(=O)N[C@@H](CC(C)C)C(=O)N[C@H](C=O)CCCNC(=N)N` [leupeptin] was tested, and the P18 protein level [1] was “marginal to no impact” and the MCL1 protein level [2] was “marginal to no impact”.

For `Cc1c(-c2c(-c3ccc(F)o3)sc3ncnc(O[C@H](Cc4ccccc4OCc4ccnn4CC(F)(F)F)C(=O)O)c23)ccc(OCCN2CCN(C)CC2)c1Cl` [S63845], the “disruption of P18 pulldown of MCL1” value (recombinant MCL1 (rMCL1)) was “suppressed the ability of P18 to pull-down MCL1” and the “effect on MCL1 overexpression induced decrease in G1 population” value [3] was “rescued the MCL1 overexpression induced decrease in G1 population back to control levels”.

In the case of `CC1(C)CCC(CN2CCN(c3ccc(C(=O)NS(=O)(=O)c4ccc(NCC5CCOCC5)c([N+](=O)[O-])c4)c(Oc4cnc5[nH]ccc5c4)c3)CC2)=C(c2ccc(Cl)cc2)C1` [ABT-199], the “impact on sub-G1 cell population” value ([3]; WAC2, MCL1 overexpressed, BH3 mimetic 18 h) is reported as “more significant impact on the sub-G1 cell population” and the “effect on MCL1 overexpression induced decrease in G1 population” value [3] is reported as “no impact on the change in G1 population”.

B1: binds [4].

B2: binds [5].

B3: binds [4].
